Patent US7825128B2, “Sulfoximine-substituted pyrimidines, processes for production thereof and use thereof as drugs” (Bayer Schering Pharma AG, priority 2005, dated 2010)

How the values were obtained:
Format in all cases: biochemical
Aurora-C = biological target: T1, Aurora-C (Homo sapiens, UniProt Q9UQB9); assay: Aurora-C kinase assay; conditions: 3 μM ATP
T1 construct: made in house; host or cells: transiently transfected HEK293 cells
T1 sequence (Q9UQB9 1-309): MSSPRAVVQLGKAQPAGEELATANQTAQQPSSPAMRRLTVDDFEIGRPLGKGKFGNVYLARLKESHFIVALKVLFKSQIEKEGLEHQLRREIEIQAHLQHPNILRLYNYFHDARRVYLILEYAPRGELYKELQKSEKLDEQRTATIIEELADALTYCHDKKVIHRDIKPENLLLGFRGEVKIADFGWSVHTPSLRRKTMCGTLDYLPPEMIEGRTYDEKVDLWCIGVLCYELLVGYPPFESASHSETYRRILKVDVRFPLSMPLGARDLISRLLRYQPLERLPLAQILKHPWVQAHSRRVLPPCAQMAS
Protocol: Recombinant Aurora-C Protein was expressed in transiently transfected HEK293 cells and then purified. As the kinase substrate, the biotinylated peptide with the amino acid sequence biotin-FMRLRRLSTKYRT, which was purchased from the company Jerini AG in Berlin, was used.
Aurora-C [5 nM in the test mixture, test volume 5 μl] was incubated for 90 mins at 22° C. in the presence of different concentrations of test substances (0 μM, and 10 data points within the range 0.001-20 μM in duplicate values) in assay buffer [25 mM HEPES pH 7.4, 0.5 mM MnCl2, 0.1 mM Na orthovanadate, 2.0 mM dithiothreitol, 0.05% bovine serum albumin (BSA), 0.01% Triton X-100, 3 μM adenosine trisphosphate (ATP), 0.67 nCi/μl gama-P33-ATP, 2.0 μM substrate peptide biotin-FMRLRRLSTKYRT, 1.0% dimethylsulfoxide]. The reaction was stopped by addition of 12.5 μl of an EDTA/detection solution [16 mM EDTA, 40 mM ATP, 0.08% Triton X-100, 4 mg/ml PVT-streptavidin-SPA beads (Amersham Co.)]. After 10 minutes' incubation, the SPA beads were pelleted by 10-minute centrifugation at 1000×G. The measurement was performed in a Topcount scintillation meter from the Perkin Elmer company. […] The IC50 values were determined by a 4-parameter fit using in-house software. […]

ITK = biological target: T2, ITK (Homo sapiens, UniProt Q08881); assay: ITK kinase assay a) (polyGT, FRET); conditions: polyGT substrate, 1.3 μM ATP
T2 sequence (Q08881 1-620): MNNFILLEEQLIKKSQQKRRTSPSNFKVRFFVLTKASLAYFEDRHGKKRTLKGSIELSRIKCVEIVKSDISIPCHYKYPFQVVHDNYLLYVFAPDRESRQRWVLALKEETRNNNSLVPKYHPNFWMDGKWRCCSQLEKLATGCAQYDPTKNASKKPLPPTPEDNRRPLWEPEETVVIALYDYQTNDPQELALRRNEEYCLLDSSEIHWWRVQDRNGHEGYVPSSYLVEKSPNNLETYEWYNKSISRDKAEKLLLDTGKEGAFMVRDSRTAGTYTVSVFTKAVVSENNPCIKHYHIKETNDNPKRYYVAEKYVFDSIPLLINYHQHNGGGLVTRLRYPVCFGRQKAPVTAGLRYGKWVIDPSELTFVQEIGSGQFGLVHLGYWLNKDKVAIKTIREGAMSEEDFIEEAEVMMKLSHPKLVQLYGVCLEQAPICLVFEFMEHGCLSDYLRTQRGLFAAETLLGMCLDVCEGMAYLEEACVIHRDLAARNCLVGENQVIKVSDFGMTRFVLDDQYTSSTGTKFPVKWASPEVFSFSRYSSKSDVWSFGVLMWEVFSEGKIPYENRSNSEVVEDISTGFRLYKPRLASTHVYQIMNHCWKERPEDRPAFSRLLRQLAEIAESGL
Protocol: For the determination of the kinase activity of ITK, the phosphorylation of polyGT is measured. In the kinase reaction, 106 pM ITK, 1.3 μM ATP and 20 nM polyGT are used. The reaction runs for 20 mins at RT and is then stopped by addition of EDTA (final concentration 60 mM).
The reaction buffer contains 50 mM TrisCL pH7.5, 10 mM MnCl2, 10% glycerine, 1 mM DTT, 0.1% Tween-20 and 0.1 mM Na3V04 and a protease inhibitor cocktail (“complete”, Roche diagnostics)
The measurement of the enzyme activity is effected by the determination of the phosphorylated substrates. The poly GT substrate used is biotinylated. The measurement is performed in a FRET-based assay, wherein an anti-phospho-tyrosine antibody recognises and binds the phosphorylated substrate poly GT.
The bound antibody is now in the spatial vicinity of a streptavidin-coupled fluorescence dye, which was bound to polyGt by biotin-streptavidin interaction. On excitation of the europium chelate on the phosphotyrosine antibody with […] UV light, light of the wavelength 620 nm is emitted, which in turn excites the dye XLent, which then emits light of longer wavelength (665 nm).
The detection reagents are added in 50 mM Hepes pH 7.0 with 0.1% BSA. […]
After addition of the detection reagents, the samples stand overnight at 4 degrees Celsius, in order to form the FRET-creating complexes. For example, an IC50=4 μM was measured for Example 1.7.

human Itk = biological target: T3, human Itk (Homo sapiens, UniProt Q08881); assay: ITK kinase assay b) (Itk HTRF assay); conditions: biotinylated myelin basic protein, 10 μM ATP
T3 construct: kinase domain of the human Itk (amino acids 352-617); 6His (N); purchased Upstate (Dundee, UK); host or cells: baculovirus infected SF21 cells
T3 sequence (Q08881 352-617): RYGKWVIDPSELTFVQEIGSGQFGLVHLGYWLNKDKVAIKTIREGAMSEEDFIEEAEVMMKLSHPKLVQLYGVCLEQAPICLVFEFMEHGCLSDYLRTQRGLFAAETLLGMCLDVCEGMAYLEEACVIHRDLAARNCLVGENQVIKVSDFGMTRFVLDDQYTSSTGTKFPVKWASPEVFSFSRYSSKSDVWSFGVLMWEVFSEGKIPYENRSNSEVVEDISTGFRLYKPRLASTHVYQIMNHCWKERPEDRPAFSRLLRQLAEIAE
From the text: Itk inhibitory activity of compounds of the present invention was quantified employing the Itk HTRF assay as described in the following paragraphs.
N-terminal 6His-tagged recombinant kinase domain of the human Itk (amino acids 352-617) expressed in baculovirus infected SF21 cells and purified using Ni^2+/NTA agarose was purchased form Upstate (Dundee, UK) and used as kinase. As substrate for the kinase reaction the biotinylated myelin basic protein was used which can be purchased form GE Healthcare (Freiburg i. Br., Germany). […]
The resulting mixture was incubated 1 h at 22° C. to allow the binding of the biotinylated phosphorylated substrate to the streptavidine-XLent and the PT66-Eu-Chelate. Subsequently the amount of phosphorylated substrate was evaluated by measurement of the resonance energy transfer from the PT66-Eu-Chelate to the streptavidine-XLent. Therefore, the fluorescence emissions at 620 nm and 665 nm after excitation at 350 nm was measured in a HTRF reader, e.g. a Rubystar (BMG Labtechnologies, Offenburg, Germany) or a Viewlux (Perkin-Elmer). […] The data were normalised (enzyme reaction without inhibitor=0% inhibition, all other assay components but no enzyme=100% inhibition) and IC50 values were calculated by a 4 parameter fit using an inhouse software.

CDK2/CycE = biological target: T4, CDK2/CycE (Homo sapiens, UniProt P24941); assay: CDK2/CycE kinase assay; conditions: 0.5 μM ATP, Histone IIIS substrate
T4 construct: GST; purchased ProQinase GmbH, Freiburg; host or cells: Baculovirus-infected Sf9 insect cells
Protocol: Recombinant CDK2- and CycE-GST fusion proteins, purified from Baculovirus-infected insect cells (Sf9), were purchased from ProQinase GmbH, Freiburg. Histone IIIS, which was used as the kinase substrate, was purchased from the Sigma Co.
CDK2/CycE (50 ng/data point) was incubated for 10 mins at 22° C. in the presence of different concentrations of test substances (0 μM, and within the range 0.01-100 μM) in assay buffer [50 mM tris/HCl pH8.0, 10 mM MgCl2, 0.1 mM Na orthovanadate, 1.0 mM dithiothreitol, 0.5 μM ATP, 10 μg/data point Histone IIIS, 0.2 μCi/data point ^33P-gamma ATP, 0.05% NP40, 1.25% dimethylsulfoxide]. The reaction was stopped by addition of EDTA solution (250 mM, pH8.0, 15 μl/data point).
15 μl of each reaction mixture was applied onto P30 filter strips (Wallac Co.), and non-incorporated ^33P-ATP was removed by washing the filter strips three times, for 10 mins each time, in 0.5% phosphoric acid. After drying of the filter strips for 1 hour at 70° C., the filter strips were covered with scintillator strips (MeltiLex™ A, Wallac Co.) and baked for 1 hour at 90° C. The quantity of incorporated ^33P (substrate phosphorylation) was determined by scintillation measurement in a gamma radiation meter (Wallac).

Tie-2 = biological target: T5, Tie-2 (Homo sapiens, UniProt Q02763); assay: Tie-2 kinase assay without prior activation of the kinase; conditions: 10 μM ATP
T5 construct: consisting of GST and the intracellular domain of Tie-2; made in house; host or cells: insect cells (Hi-5)
From the text: For the kinase assay, a recombinant fusion protein expressed in insect cells (Hi-5) and purified by glutathione-sepharose affinity chromatography, consisting of GST and the intracellular domain of Tie-2, was used. Alternatively, commercially available GST-Tie2 fusion protein (Upstate Biotechnology, Dundee, Scotland) can be used. As the substrate for the kinase reaction, the biotinylated peptide biotin-Ahx-EPKDDAYPLYSDFG (C-terminus in amide form), which can be acquired e.g. from the company Biosyntan GmbH (Berlin-Buch, Germany) was used. […]
The resulting mixture was incubated for 1 hr at 22° C. in order to allow the binding of the biotinylated phosphorylated peptide to the streptavidin-XLent and the PT66-Eu-chelate. After this, the quantity of the phosphorylated substrate peptide was determined by measurement of the resonance energy transfer from the PT66-Eu chelate to the streptavidin-XLent. For this purpose, the fluorescence emission at 620 nm and 665 nm after excitation at 350 nm was measured in a HTRF meter, e.g. Rubystar (BMG Labtechnologies, Offenburg, Germany) or Viewlux (Perkin-Elmer). The ratio of the emissions at 665 nm and at […] was used as a measure of the quantity of the phosphorylated substrate peptide. […]

T5 sequence (Q02763 770-1124 limits assumed, species assumed): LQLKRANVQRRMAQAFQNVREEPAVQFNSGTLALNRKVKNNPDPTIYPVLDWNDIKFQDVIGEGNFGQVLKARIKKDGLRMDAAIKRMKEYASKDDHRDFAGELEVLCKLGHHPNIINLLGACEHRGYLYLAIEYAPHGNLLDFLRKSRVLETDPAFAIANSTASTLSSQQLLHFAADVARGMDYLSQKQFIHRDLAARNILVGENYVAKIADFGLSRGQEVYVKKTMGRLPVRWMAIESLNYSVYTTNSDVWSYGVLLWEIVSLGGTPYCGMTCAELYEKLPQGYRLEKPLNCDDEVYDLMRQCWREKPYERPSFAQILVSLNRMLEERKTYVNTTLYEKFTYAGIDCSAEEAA

With `CCOC(=O)N=S(C)(=O)c1ccc(Nc2ncc(-c3cccs3)c(N[C@H](C)CO)n2)cc1` (mixture of isomers) [Example 1.1, (RS)—N-(ethoxycarbonyl)-S-(4-{[4-{[(R)-2-hydroxy-1-methylethyl]amino}-5-(2-thienyl)pyrimidine-2-yl]amino}phenyl)-S-methylsulfoximide] the IC50 (Aurora-C) was 2000 nM.
Work on `CCOC(=O)N=S(C)(=O)c1ccc(Nc2ncc(-c3cccs3)c(N[C@H](CC)CO)n2)cc1Br` (mixture of isomers) [Example 1.7, (RS)—S-{2-bromo-4-[(4-{[(R)-1-(hydroxymethyl)propyl]amino}-5-(2-thienyl)pyrimidine-2-yl)amino]phenyl}-N-(ethoxycarbonyl)-S-methylsulfoximide] yielded an IC50 (ITK) of 4 µM and an IC50 (human Itk) of 400 nM.
For `CCS(=N)(=O)c1ccc(Nc2ncc(-c3ccsc3)c(N[C@H](CO)CC(C)C)n2)cc1` (mixture of isomers) [Example 5.3, (RS)—S-ethyl-S-(4-{[4-{[(S)-1-(hydroxymethyl)-3-methylbutyl]amino}-5-(3-thienyl)pyrimidine-2-yl]amino}phenyl)sulfoximide], the IC50 (CDK2/CycE) was 3 µM.
`CC[C@H](CO)Nc1nc(Nc2ccc(S(C)(=N)=O)c(Br)c2)ncc1-c1cccs1` (mixture of isomers) [Example 5.5, (RS)—S-{2-bromo-4-[(4-{[(R)-1-(hydroxymethyl)propyl]amino}-5-(2-thienyl)-pyrimidine-2-yl)amino]phenyl}-S-methylsulfoximide] was tested, and the IC50 (Tie-2) was 3 µM.
